Reference: patent publication US6395768B1, “Uses for indole-3-propionic acids and salts and esters thereof” (South Alabama Medical Science Foundation, priority 1998, dated 2002)

Columns and labels:
[1] = test system: PC12 cells; experiment: Lipid peroxidation (malondialdehyde levels) in cells exposed to Aβ or DDTC; type: cell-based, rat; details: PC12 cells exposed to amyloid peptide Aβ(1-42) or DDTC, with IPA; FIG. 4
Description: In order to investigate the possibility that the cytoprotective properties of IPA are also the result, at least in part, of anti-oxidant activity, the -levels of malondialdehyde (“MDA”), a marker of lipid peroxidation, in PC12 cells exposed to Aβ or to oxidative stress were examined. Oxidative stress was delivered by exposing cells to […] (“DDTC”), an inhibitor of superoxide dismutase and an established model of oxidative injury. The PC12 cells were exposed to either amyloid peptide alone or amyloid peptide along with IPA. In other experiments, the cells were exposed to either DDTC alone or DDTC with IPA.

[2] = molecular target: Aβ (1-40) (Homo sapiens, UniProt P05067); experiment: Aβ fibrillogenesis, thioflavin T fluorescence (β sheet formation); type: biochemical; details: 150 μM Aβ (1-40), 300 μM IPA, sodium salt
Description: As a control, the ultrapure water used to dissolve the IPA containing an equivalent amount of sodium chloride was added to 150 μM Aβ (1-40) at a pH of 7. In one experiment, each of the solutions (i.e., the solution containing IPA and the control solution) was incubated for 24 hours. In a second experiment, each of the solutions was incubated for 48 hours. At the end of each incubation period, 50 mM glycine-NaOH buffer (pH 9.2) containing 2 μM thioflavin T was added to each sample (5 μL) to a final volume of 2 mL. Fluorescence, which is a direct measure of β sheet formation, was measured at an excitation wavelength of 435 nm and an emission wavelength of 485 nm using a Hitachi F-2000 fluorescence spectrometer. The average and standard deviations of the mean of 3 samples per condition were determined, and the results are presented (as bar graphs) in FIG. 6A (24 hour incubation) and FIG. 6B (48 hour incubation).

[3] = test system: PC12 neuroblastoma cells; experiment: Prevention of cell death induced by oxidative stress (DDTC, superoxide dismutase inhibition); type: cell-based, rat; details: varying amounts of DDTC and IPA, FIG. 5
Description: To further confirm the observations shown in Example 4, we studied whether IPA was effective in preventing death of cells exposed to oxidative stress (DDTC). PC12 neuroblastoma cells were treated with varying amounts of DDTC, with or without varying amounts of IPA. The anti-oxidant activity of IPA is shown by preventing cell death of neurblastoma cells induced by inhibition of the superoxide dismutase by DDTC.

[4] = test system: human neuroblastoma cell line SK-N-SH; experiment: Cytoprotection against Aβ(25-35) toxicity, cell viability; type: cell-based; details: SK-N-SH cells, 50 μM Aβ (25-35), 50 μM compound; FIG. 1
Description: To illustrate the cytoprotective affects of IPA against the cytotoxic effects of Aβ, cells of the human neuroblastoma cell line SK-N-SH were used. These cells were exposed to 50 μM Aβ (25-35), the actively toxic fragment of Aβ (Yankner et al., 1990) with or without 50 μM of IPA. As a control, the experiments were repeated without Aβ. As a positive control, the well-known anti-oxidant, phenyl-N-t-butylnitrone (“PBN”) was substituted for IPA.

Chain of Aβ (1-40) (P05067 672-711): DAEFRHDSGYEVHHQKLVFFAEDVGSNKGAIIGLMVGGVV

## O=C(O)CCc1c[nH]c2ccccc12 [IPA, indole-3-propionic acid]
[1]
  production of malondialdehyde (MDA), marker of lipid peroxidation: significantly decreases the production of malondialdehyde
[2]; pH 7, 24 hour incubation, FIG. 6A
  thioflavin T fluorescence (β sheet formation) relative to control: significantly less
[2]; pH 7, 48 hour incubation, FIG. 6B
  thioflavin T fluorescence (β sheet formation) relative to control: significantly less
[3]
  survival of cells exposed to DDTC: increases the survival of cells exposed to DDTC

## CC(C)(C)[N+]([O-])=Cc1ccccc1 [PBN, phenyl-N-t-butylnitrone]
[4]
  protective activity against cytotoxic effect of Aβ (viability, percent): strong protective activity
